SMILES strings stand for the structures. Where only a bound is given, the exact number is not on record here.

Experiment [1] addresses full-length MALT1 protein (Strep-MALT1(1-824)-His) (Homo sapiens (Human), UniProt Q9UDY8). Briefly: MALT1 Biochemical Protease Assay (Ac-LRSR-AMC substrate). The conditions noted are these: 10 nM FL MALT1, 200 μM Ac-LRSR-AMC, 4 h at RT; read-out: MALT1_Biochemical activity (Ac-LRSR-amc) IC50. The method in brief:
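Fluorescence from AMC release off the quenched LRSR substrate was read after a 4 h reaction at RT. Values were normalised to no-enzyme and uninhibited controls and fitted for IC50 and Hill coefficient.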

Experiment [2] has as its system IL6 secretion by TMD8 ABC-DLBCL cells. The experiment is described as follows: Human IL6 Mesoscale assay (TMD-8). It is filed as cell-based. The note with it: Homo sapiens, TMD8; TMD-8 cells, 24 h. In outline: (§1)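 TMD8 or OCI-LY3 cells (100,000/well) were exposed to compounds in 9 twofold dilutions from 15 μM to 58.6 nM (0.3% DMSO) for 24 h at 37 °C. Supernatant IL6 and IL10 were quantified by MSD electrochemiluminescence immunoassay. DMSO defined maximum signal and BTK inhibitor RN486 (30 nM–131 pM) defined maximum inhibition.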

Experiment [3] relates to IL10 secretion by TMD8 ABC-DLBCL cells. Briefly: Human IL10 Mesoscale assay (TMD-8). It is filed as cell-based. The conditions noted are these: Homo sapiens, TMD8; TMD-8 cells, 24 h. The method in brief: as §1

full-length MALT1 protein (Strep-MALT1(1-824)-His), sequence (Q9UDY8 whole entry): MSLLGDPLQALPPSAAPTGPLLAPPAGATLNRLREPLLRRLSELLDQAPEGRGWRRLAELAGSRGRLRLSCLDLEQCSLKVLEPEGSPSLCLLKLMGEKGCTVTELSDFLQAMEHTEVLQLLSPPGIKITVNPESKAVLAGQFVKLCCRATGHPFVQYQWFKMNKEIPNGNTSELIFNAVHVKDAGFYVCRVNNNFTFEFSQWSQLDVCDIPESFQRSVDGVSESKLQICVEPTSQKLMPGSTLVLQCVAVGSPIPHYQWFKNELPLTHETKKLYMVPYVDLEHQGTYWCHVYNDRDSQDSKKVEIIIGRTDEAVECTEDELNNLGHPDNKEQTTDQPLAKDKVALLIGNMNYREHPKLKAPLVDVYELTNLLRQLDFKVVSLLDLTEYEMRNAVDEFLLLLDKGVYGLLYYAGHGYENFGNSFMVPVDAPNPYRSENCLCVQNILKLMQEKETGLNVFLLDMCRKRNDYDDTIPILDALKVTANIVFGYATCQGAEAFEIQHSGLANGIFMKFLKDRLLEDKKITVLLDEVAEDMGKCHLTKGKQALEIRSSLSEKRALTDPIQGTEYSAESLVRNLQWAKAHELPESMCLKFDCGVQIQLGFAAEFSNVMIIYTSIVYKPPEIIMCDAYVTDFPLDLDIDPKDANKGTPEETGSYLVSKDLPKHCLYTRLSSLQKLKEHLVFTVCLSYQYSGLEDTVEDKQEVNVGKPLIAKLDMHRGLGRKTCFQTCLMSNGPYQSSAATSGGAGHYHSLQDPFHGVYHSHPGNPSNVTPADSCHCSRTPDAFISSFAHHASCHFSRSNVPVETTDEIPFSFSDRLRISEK

Take `O=C(Nc1cnc(-n2nccn2)c(Cl)c1)c1cnn(-c2nsc3ncccc23)c1C(F)(F)F` [Cpd 279, N-(5-chloro-6-(2H-1,2,3-triazol-2-yl)pyridin-3-yl)-1-(isothiazolo[5,4-b]pyridin-3-yl)-5-(trifluoromethyl)-1H-pyrazole-4-carboxamide]: the IC50 came out at 126 nM in experiment [1], 3720 nM in experiment [2] and 2750 nM in experiment [3].
For `N#Cc1cc(NC(=O)c2cnn(-c3cccc4ncccc34)c2C(F)(F)F)cnc1-n1cccc1` [Cpd 280, N-(5-cyano-6-(1H-pyrrol-1-yl)pyridin-3-yl)-1-(quinolin-5-yl)-5-(trifluoromethyl)-1H-pyrazole-4-carboxamide], the IC50 in experiment [1] amounted to 126 nM; in experiment [2] it was 5500 nM; in experiment [3] it was 2400 nM.
In the case of `COc1nccc2c(-n3ncc(C(=O)Nc4cnc(-n5nccn5)c(C#N)c4)c3C(F)(F)F)cccc12` [Cpd 281, N-(5-cyano-6-(2H-1,2,3-triazol-2-yl)pyridin-3-yl)-1-(1-methoxyisoquinolin-5-yl)-5-(trifluoromethyl)-1H-pyrazole-4-carboxamide], the IC50 in experiment [1] amounted to 123 nM; in experiment [2], 2570 nM; in experiment [3], 3020 nM.
Taken in the same sequence, the figures for `Cc1cc(NC(=O)c2cnn(-c3cccc4ncccc34)c2C(F)(F)F)cnc1-c1nnn(C)n1` [Cpd 305, N-(5-methyl-6-(2-methyl-2H-tetrazol-5-yl)pyridin-3-yl)-1-(quinolin-5-yl)-5-(trifluoromethyl)-1H-pyrazole-4-carboxamide] were 62 nM, > 15100 nM and 7940 nM.
Taken in the same sequence, the figures for `N#Cc1cc(NC(=O)c2cnn(-c3cc(N)nc4ccccc34)c2C(F)(F)F)cnc1-n1nccn1` [Cpd 329, 1-(2-aminoquinolin-4-yl)-N-(5-cyano-6-(2H-1,2,3-triazol-2-yl)pyridin-3-yl)-5-(trifluoromethyl)-1H-pyrazole-4-carboxamide] were 661 nM, 1660 nM and 1440 nM.
On to `O=C(Nc1ccnc(N2CCOCC2)c1)c1cnn(-c2cccc3c(=O)[nH]ccc23)c1C(F)(F)F` [Cpd 361, N-(2-morpholinopyridin-4-yl)-1-(1-oxo-1,2-dihydroisoquinolin-5-yl)-5-(trifluoromethyl)-1H-pyrazole-4-carboxamide], for which the IC50 in experiment [1] was determined as 12300 nM; in experiment [2], 1260 nM; in experiment [3], 617 nM.
Taken in the same sequence, the figures for `Cc1cn(-c2nc(C)c(NC(=O)c3cnn(-c4cccc5c(=O)[nH]ccc45)c3C(F)(F)F)cc2Cl)nn1` [Cpd 362, N-(5-chloro-2-methyl-6-(4-methyl-1H-1,2,3-triazol-1-yl)pyridin-3-yl)-1-(1-oxo-1,2-dihydroisoquinolin-5-yl)-5-(trifluoromethyl)-1H-pyrazole-4-carboxamide] were 138 nM, 3470 nM and 1180 nM.
Taken in the same sequence, the figures for `O=C(Nc1cncc(-n2nccn2)c1)c1cnn(-c2cccc3c(=O)[nH]ccc23)c1C(F)(F)F` [Cpd 363, N-(5-(2H-1,2,3-triazol-2-yl)pyridin-3-yl)-1-(1-oxo-1,2-dihydroisoquinolin-5-yl)-5-(trifluoromethyl)-1H-pyrazole-4-carboxamide] were 26300 nM, > 302 nM and > 302 nM.
For the molecule `CC(=O)c1cc(-n2ncc(C(=O)Nc3cnc(-n4nccn4)c(Cl)c3)c2C(F)(F)F)c2ccccc2n1` [Cpd 375, 1-(2-acetylquinolin-4-yl)-N-(5-chloro-6-(2H-1,2,3-triazol-2-yl)pyridin-3-yl)-5-(trifluoromethyl)-1H-pyrazole-4-carboxamide], the IC50 in experiment [1] is 355 nM; in experiment [2], 102 nM; in experiment [3] it was 85 nM.
Taken in the same sequence, the figures for `CC(=O)c1nccc2c(-n3ncc(C(=O)Nc4cnc(-n5nccn5)c(Cl)c4)c3C(F)(F)F)cccc12` [Cpd 378, 1-(1-acetylisoquinolin-5-yl)-N-(5-chloro-6-(2H-1,2,3-triazol-2-yl)pyridin-3-yl)-5-(trifluoromethyl)-1H-pyrazole-4-carboxamide] were 447 nM, 389 nM and 182 nM.
Taken in the same sequence, the figures for `O=C(Nc1cnc(-n2nccn2)c(Cl)c1)c1cnn(-c2cnc(C3CCN3)c3ccccc23)c1C(F)(F)F` (stereo not drawn) [Cpd 379, 1-(1-(azetidin-2-yl)isoquinolin-4-yl)-N-(5-chloro-6-(2H-1,2,3-triazol-2-yl)pyridin-3-yl)-5-(trifluoromethyl)-1H-pyrazole-4-carboxamide] were 501 nM, 21 nM and 15 nM.
`O=C(Nc1cnc(-n2nccn2)c(Cl)c1)c1cnn(-c2cccc3nc(C4CCN4)ccc23)c1C(F)(F)F` (stereo not drawn) [Cpd 381, 1-(2-(azetidin-2-yl)quinolin-5-yl)-N-(5-chloro-6-(2H-1,2,3-triazol-2-yl)pyridin-3-yl)-5-(trifluoromethyl)-1H-pyrazole-4-carboxamide]: the IC50 in experiment [1] turned out to be 4900 nM; in experiment [2] it was 21 nM; in experiment [3], 43 nM.
Taken in the same sequence, the figures for `NC(=O)c1cc(-n2ncc(C(=O)Nc3cnc(-n4nccn4)c(Cl)c3)c2C(F)(F)F)c2ccccc2n1` [Cpd 386, 4-(4-((5-chloro-6-(2H-1,2,3-triazol-2-yl)pyridin-3-yl)carbamoyl)-5-(trifluoromethyl)-1H-pyrazol-1-yl)quinoline-2-carboxamide] were 107 nM, 56 nM and 21 nM.
As for `NC(=O)c1ccc2c(-n3ncc(C(=O)Nc4cnc(-n5nccn5)c(Cl)c4)c3C(F)(F)F)cccc2n1` [Cpd 388, 5-(4-((5-chloro-6-(2H-1,2,3-triazol-2-yl)pyridin-3-yl)carbamoyl)-5-(trifluoromethyl)-1H-pyrazol-1-yl)quinoline-2-carboxamide], the IC50 was 2000 nM in experiment [1], 126 nM in experiment [2] and 54 nM in experiment [3].
For `NC(=O)c1nccc2c(-n3ncc(C(=O)Nc4cnc(-n5nccn5)c(Cl)c4)c3C(F)(F)F)cccc12` [Cpd 389, 5-(4-((5-chloro-6-(2H-1,2,3-triazol-2-yl)pyridin-3-yl)carbamoyl)-5-(trifluoromethyl)-1H-pyrazol-1-yl)isoquinoline-1-carboxamide], the IC50 stood at 186 nM in experiment [1], 58 nM in experiment [2] and 46 nM in experiment [3].
Regarding `Cc1nc(-n2nccn2)c(Cl)cc1NC(=O)c1cnn(-c2cnc(C(N)=O)c3sccc23)c1C(F)(F)F` [Cpd 393, 4-(4-((5-chloro-2-methyl-6-(2H-1,2,3-triazol-2-yl)pyridin-3-yl)carbamoyl)-5-(trifluoromethyl)-1H-pyrazol-1-yl)thieno[2,3-c]pyridine-7-carboxamide], the results for the IC50 in experiment [1], in experiment [2] and in experiment [3] were 12 nM, 245 nM and 126 nM, respectively.
Taken in the same sequence, the figures for `O=C(Nc1cnc(-n2nccn2)c(Cl)c1)c1cnn(-c2cccc3nc(C(F)F)ccc23)c1C(F)(F)F` [Cpd 395, N-(5-chloro-6-(2H-1,2,3-triazol-2-yl)pyridin-3-yl)-1-(2-(difluoromethyl)quinolin-5-yl)-5-(trifluoromethyl)-1H-pyrazole-4-carboxamide] were 3470 nM, 72 nM and 28 nM.
With `O=C(Nc1cnc(-n2nccn2)c(Cl)c1)c1cnn(-c2cccc3nccc(C(F)F)c23)c1C(F)(F)F` [Cpd 396, N-(5-chloro-6-(2H-1,2,3-triazol-2-yl)pyridin-3-yl)-1-(4-(difluoromethyl)quinolin-5-yl)-5-(trifluoromethyl)-1H-pyrazole-4-carboxamide], the IC50 in experiment [1] was determined as 447 nM; in experiment [2] it was 51 nM; in experiment [3], 39 nM.
Taken in the same sequence, the figures for `O=C(Nc1cnc(-n2nccn2)c(Cl)c1)c1cnn(-c2ccc(C(F)F)c3ncccc23)c1C(F)(F)F` [Cpd 397, N-(5-chloro-6-(2H-1,2,3-triazol-2-yl)pyridin-3-yl)-1-(8-(difluoromethyl)quinolin-5-yl)-5-(trifluoromethyl)-1H-pyrazole-4-carboxamide] were 214 nM, 107 nM and 17 nM.
On to `O=C(Nc1cnc(-n2nccn2)c(Cl)c1)c1cnn(-c2cnc(C(F)F)c3sccc23)c1C(F)(F)F` [Cpd 398, N-(5-chloro-6-(2H-1,2,3-triazol-2-yl)pyridin-3-yl)-1-(7-(difluoromethyl)thieno[2,3-c]pyridin-4-yl)-5-(trifluoromethyl)-1H-pyrazole-4-carboxamide], for which the values for the IC50 in experiment [1], in experiment [2] and in experiment [3] were 60 nM, 98 nM and 56 nM, respectively.
`O=C(Nc1cnc(-n2nccn2)c(Cl)c1)c1cnn(-c2cncc3sc(C(F)F)cc23)c1C(F)(F)F` [Cpd 399, N-(5-chloro-6-(2H-1,2,3-triazol-2-yl)pyridin-3-yl)-1-(2-(difluoromethyl)thieno[2,3-c]pyridin-4-yl)-5-(trifluoromethyl)-1H-pyrazole-4-carboxamide]: the IC50 worked out at 316 nM in experiment [1], 52 nM in experiment [2] and 49 nM in experiment [3].
Taken in the same sequence, the figures for `O=C(Nc1cnc(-n2nccn2)c(Cl)c1)c1cnn(-c2cccc3c(C(F)F)nccc23)c1C(F)(F)F` [Cpd 400, N-(5-chloro-6-(2H-1,2,3-triazol-2-yl)pyridin-3-yl)-1-(1-(difluoromethyl)isoquinolin-5-yl)-5-(trifluoromethyl)-1H-pyrazole-4-carboxamide] were 209 nM, 126 nM and 47 nM.

What is called IC50 is the concentration that inhibits the measured activity by half.

Values taken from patent US10954214B2 (Janssen Pharmaceutica NV, priority 2016, dated 2021).
